# Laboratory results from ChEMBL document CHEMBL1151388, “Isolation and Structure of 14,15-Epoxyprieurianin From the South American Tree Guarea guidona” (1982).
# The source made the active and inactive calls. The calls are words filed in the database; no cut-off is given here.
# Assays:
# P388 [1] = test: Cytotoxicity against mouse P388 cells; type: functional; conditions: for EC50: read-out: ED50 (the source's name)
# P388 [2] = test: In vivo cytotoxicity against mouse P388 cells up to 8 mg/kg; type: functional, organism-based; parameters: dose 8 mg/kg
Compound,Activity (P388 [1]),EC50 (P388 [1]),Activity (P388 [2])
CC1(C)C(=O)C=C[C@]2(C)[C@H]3CC[C@@]4(C)[C@H](c5ccoc5)OC(=O)[C@H]5O[C@]54[C@]3(C)C(=O)C[C@@H]12,inactive,–,–
C=C1[C@H]([C@]2(C)[C@@H](OC(C)=O)CC(=O)O[C@](C)(COC(C)=O)[C@@H]2CC(=O)OC)[C@@H](OC=O)[C@H](OC(=O)[C@H](O)[C@H](C)CC)[C@]2(C)[C@@H](c3ccoc3)C[C@@H]3O[C@]132,–,0.47 µg/mL,–
C=C1[C@@H]([C@@]2(C)[C@@H](OC(C)=O)CC(=O)O[C@](C)(COC(C)=O)[C@@H]2C(=O)OC)[C@@H](OC=O)[C@H](OC(=O)[C@H](O)[C@H](C)CC)[C@@]2(C)[C@H](c3ccoc3)CC(=O)[C@]12O [PRIEURIANIN],–,4.4 µg/mL,inactive
